Read-outs that look alike come from different tables or passages of the source.
Legend:
HCT116 cells = assay: MTT assay; type: cell-based; conditions: Homo sapiens, HCT116 cells, 72 hours
Experimental: HCT116 cells (2000/well) were plated into 96-well tissue culture plates one day before compound treatment. Compounds at various concentrations were added to the cells. The cells were incubated for 72 hours at 37° C. in 5% CO2 incubator. MTT (3-[4,5-dimethylthiazol-2-yl]-2,5 diphenyl tetrazolium bromide, Sigma) was added at a final concentration of 0.5 mg/ml and incubated with the cells for 4 hours before one volume of solubilization buffer (50% N,N-dimethylformamide, 20% SDS, pH 4.7) was added onto the cultured cells. […] OD values were converted to cell numbers according to a standard growth curve of the relevant cell line.

[1] = molecular target: T1, cloned recombinant human HDAC-1 (Homo sapiens, UniProt Q13547); assay: Human HDAC-1 enzyme inhibition, Assay 1 ([3H]-acetylated histone substrate, scintillation counting); type: biochemical
T1 construct: made in house; host or cells: Baculovirus insect cell expression system
T1 sequence (Q13547 whole entry): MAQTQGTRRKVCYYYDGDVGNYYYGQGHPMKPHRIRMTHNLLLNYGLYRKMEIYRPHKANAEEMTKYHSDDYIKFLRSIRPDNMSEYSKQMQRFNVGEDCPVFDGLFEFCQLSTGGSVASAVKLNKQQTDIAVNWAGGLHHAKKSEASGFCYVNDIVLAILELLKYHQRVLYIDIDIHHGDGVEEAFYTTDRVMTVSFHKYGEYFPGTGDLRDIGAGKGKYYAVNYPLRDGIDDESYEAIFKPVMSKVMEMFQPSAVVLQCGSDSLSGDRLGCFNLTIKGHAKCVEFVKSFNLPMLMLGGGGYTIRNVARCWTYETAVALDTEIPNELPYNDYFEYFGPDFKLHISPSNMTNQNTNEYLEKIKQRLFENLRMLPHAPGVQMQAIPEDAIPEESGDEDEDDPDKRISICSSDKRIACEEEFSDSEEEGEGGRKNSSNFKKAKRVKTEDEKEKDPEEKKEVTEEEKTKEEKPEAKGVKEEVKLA
Experimental: Assay 1. HDAC inhibitors were screened against a cloned recombinant human HDAC-1 enzyme expressed and purified from a Baculovirus insect cell expression system. […] The mixture was extracted with ethyl acetate and the released [^3H]-acetic acid was quantified by scintillation counting. For inhibition studies, the enzyme was preincubated with compounds at 4° C. for 30 minutes prior to initiation of the enzymatic assay. IC50 values for HDAC enzyme inhibitors were determined by performing dose response curves with individual compounds and determining the concentration of inhibitor producing fifty percent of the maximal inhibition.

[2] = Table 5d, read-out: HDAC-1 IC50
[3] = Table 5F, read-out: Human HDAC-1 IC50
[4] = Table 5c, read-out: Human HDAC-1 IC50
[5] = Table 5b, read-out: Human HDAC-1 IC50

Q: For `COc1cc(/C=C/c2ccc(/C=C/C(=O)Nc3ccccc3N)cc2)cc(OC)c1OC` [Cpd 536, N-(2-Amino-phenyl)-3-{4-[2-(3,4,5-trimethoxy-phenyl)-vinyl]-phenyl}-acrylamide], which IC50 (HCT116 cells; HCT-116, Table 5d) is on record?
A: 9 µM

Q: And the IC50 [1, 2]?
A: 18 µM

Q: Which results are given for `Nc1ccccc1NC(=O)/C=C/c1ccc(C(=O)Nc2ccccc2N)cc1` [Cpd 520, N-(2-Amino-phenyl)-4-[2-(2-amino-phenylcarbamoyl)-vinyl]-benzamide]?
A: IC50 (HCT116 cells; HCT-116, Table 5d): 3 µM; IC50 [1, 2]: 5 µM

Q: `Nc1ccccc1NC(=O)c1ccc(CNc2nc(N3CCCCC3)nc(N3CCCCC3)n2)cc1` [Cpd 26, N-(2-Amino-phenyl)-4-[(4,6-di-piperidin-1-yl-[1,3,5]triazin-2-ylamino)-methyl]-benzamide] was tested. Which IC50 (HCT116 cells; HCT-116, 72 h, Table 5a) did it give?
A: 2 µM

Q: And the IC50 ([1]; Table 5a, read-out: Human HDAC-1 IC50)?
A: 0.5 µM

Q: With `Nc1ccccc1NC(=O)/C=C/c1ccc(CNc2ccc(I)cc2)cc1` [Cpd 547, N-(2-Amino-phenyl)-3-{4-[(4-iodo-phenylamino)-methyl]-phenyl}-acrylamide] as the compound, how does the IC50 (HCT116 cells; HCT-116, Table 5d) read?
A: 8 µM

Q: And the IC50 [1, 2]?
A: 4 µM

Q: `Nc1ccccc1NC(=O)/C=C/c1ccc(CNc2cccc(OCCO)c2)cc1` [Cpd 549, N-(2-Amino-phenyl)-3-(4-{[3-(2-hydroxy-ethoxy)-phenylamino]-methyl}-phenyl)-acrylamide] was tested. Which IC50 (HCT116 cells; HCT-116, Table 5d) did it give?
A: 19 µM

Q: What about the IC50 [1, 2] of the same compound?
A: 4 µM

Q: With `COc1cc(NCc2ccc(/C=C/C(=O)Nc3ccccc3N)cc2N)cc(OC)c1OC` [Cpd 568] as the compound, how does the IC50 (HCT116 cells; HCT-116, Table 5d) read?
A: 39 µM

Q: And the IC50 [1, 2]?
A: > 25 µM

Q: What does the source list for `Nc1nc(NCc2ccc(C(=O)Nc3ccccc3N)cc2)c2nc[nH]c2n1` [Cpd 331, N-(2-Amino-phenyl)-4-[(2-amino-9H-purin-6-ylamino)-methyl]-benzamide]?
A: IC50 (HCT116 cells; HCT-116, 72 h, Table 5F): 10 µM; IC50 [1, 3]: 4 µM

Q: Which IC50 (HCT116 cells; HCT-116, 72 h, Table 5c) does the source give for `COc1ccc(CNc2cccc(/C=C/C(=O)Nc3ccccc3N)n2)cc1` [Cpd 51, N-(2-aminophenyl)-3-[6-(4-methoxy-benzylamino)-pyridin-2-yl]-acrylamide] here?
A: 4 µM

Q: What about the IC50 [1, 4] of the same compound?
A: 22 µM

Q: For `Nc1ccccc1NC(=O)c1ccc(CN2CCOCC2)cc1` [Cpd 328], which IC50 (HCT116 cells; HCT-116, 72 h, Table 5F) is on record?
A: 10 µM

Q: What about the IC50 [1, 3] of the same compound?
A: 17 µM

Q: `COc1ccc2nc(NCc3ccc(/C=C/C(=O)Nc4ccccc4N)cc3)sc2c1` [Cpd 502] was tested. Which IC50 (HCT116 cells; HCT-116, Table 5d) did it give?
A: > 25 µM

Q: And the IC50 [1, 2]?
A: 3 µM

Q: `COc1cc(NCc2ccc(/C=C/C(=O)Nc3cccc(O)c3N)cc2)cc(OC)c1OC` [Cpd 561] was tested. Which IC50 (HCT116 cells; HCT-116, Table 5d) did it give?
A: > 25 µM

Q: What about the IC50 [1, 2] of the same compound?
A: > 25 µM

Q: `COc1cc(SCc2ccc(/C=C/C(=O)Nc3ccccc3N)cc2)cc(OC)c1OC` [Cpd 500, N-(2-Amino-phenyl)-3-[4-(3,4,5-trimethoxy-phenylsulfanylmethyl)-phenyl]-acrylamide] was tested. Which IC50 (HCT116 cells; HCT-116, Table 5d) did it give?
A: 37 µM

Q: And the IC50 [1, 2]?
A: 23 µM

Q: Which results are given for `NCc1cccc(CNc2ccc(/C=C/C(=O)Nc3ccccc3N)cn2)c1` [Cpd 102, 3-[6-(3-aminomethyl-benzylamino)-pyridin-3-yl]-N-(2-aminophenyl)-acrylamide]?
A: IC50 (HCT116 cells; HCT-116, 72 h, Table 5c): 6 µM; IC50 [1, 4]: 20 µM

Q: Which IC50 (HCT116 cells; HCT-116, Table 5d) does the source give for `COc1cc(NCc2ccc(/C=C/C(=O)Nc3ccccc3N)cc2[N+](=O)[O-])cc(OC)c1OC` [Cpd 567] here?
A: 3 µM

Q: And the IC50 [1, 2]?
A: 13 µM

Q: `Nc1ccccc1NC(=O)c1ccc(Cn2cnc3cc(F)c(F)cc3c2=O)cc1` [Cpd 339, N-(2-Amino-phenyl)-4-(6,7-difluoro-4-oxo-4H-quinazolin-3-ylmethyl)-benzamide] was tested. Which IC50 (HCT116 cells; HCT-116, 72 h, Table 5F) did it give?
A: 3 µM

Q: And the IC50 [1, 3]?
A: 4 µM

Q: Which results are given for `Nc1ccccc1NC(=O)c1ccc(CCN2C(=O)c3ccccc3C2=O)cc1` [Cpd 152, N-(2-Amino-phenyl)-4-[2-(1,3-dioxo-1,3-dihydro-isoindol-2-yl)-ethyl]-benzamide]?
A: IC50 (HCT116 cells; HCT-116, 72 h, Table 5E): 11 µM; IC50 ([1]; Table 5E, read-out: Human HDAC-1 IC50): 0.3 µM

Q: Which results are given for `COc1ccc(C2=NC(c3ccc(C(=O)Nc4ccccc4N)cc3)CO2)cc1OC` (stereo not drawn) [compound 301, N-(2-Amino-phenyl)-4-[2-(3,4-dimethoxy-phenyl)-4,5-dihydro-oxazol-4-yl]-benzamide]?
A: IC50 (HCT116 cells; HCT-116, 72 h, Table 5F): 3 µM; IC50 [1, 3]: 3 µM

Q: With `Nc1ccccc1NC(=O)/C=C/c1ccc(NCc2cccnc2)cc1` [Cpd 111, N-(2-amino-phenyl)-3-{4-[(pyridin-3-ylmethyl)-amino]-phenyl}-acrylamide] as the compound, how does the IC50 (HCT116 cells; HCT-116, 72 h, Table 5c) read?
A: 2 µM

Q: What about the IC50 [1, 4] of the same compound?
A: 10 µM

Q: With `CC(C)c1ccc(NCc2ccc(/C=C/C(=O)Nc3ccccc3N)cc2)cc1` [Cpd 510, N-(2-Amino-phenyl)-3-{4-[(4-isopropyl-phenylamino)-methyl]-phenyl}-acrylamide] as the compound, how does the IC50 (HCT116 cells; HCT-116, Table 5d) read?
A: 5 µM

Q: And the IC50 [1, 2]?
A: 6 µM

Q: Which results are given for `Nc1ccccc1NC(=O)c1ccc(CNc2nc(NCCc3ccc(Cl)cc3)nc(NC3CC3)n2)cc1` [Cpd 475]?
A: IC50 (HCT116 cells; HCT-116, 72 h, Table 5b): 2 µM; IC50 [1, 5]: 0.6 µM

Q: With `N#Cc1cccc(NCc2ccc(C=CC(=O)Nc3ccccc3N)cc2)c1` [Cpd 532] as the compound, how does the IC50 (HCT116 cells; HCT-116, Table 5d) read?
A: 5 µM

Q: What about the IC50 [1, 2] of the same compound?
A: 3 µM

Q: For `Nc1ccccc1NC(=O)c1ccc(CNc2nc(NCCc3cccnc3)nc(NC3CC3)n2)cc1` [Cpd 481], which IC50 (HCT116 cells; HCT-116, 72 h, Table 5b) is on record?
A: 0.7 µM

Q: And the IC50 [1, 5]?
A: 6 µM

Q: With `COc1ccc(NCc2ccc(/C=C/C(=O)Nc3ccccc3N)cc2)cc1` [Cpd 541, N-(2-Amino-phenyl)-3-{4-[(4-methoxy-phenylamino)-methyl]-phenyl}-acrylamide] as the compound, how does the IC50 (HCT116 cells; HCT-116, Table 5d) read?
A: 12 µM

Q: Which IC50 (HCT116 cells; HCT-116, 72 h, Table 5F) does the source give for `COc1ccc(NCc2ccc(C(=O)Nc3cc(C(F)(F)F)ccc3N)cc2)cc1OC` [Cpd 453, N-(2-Amino-5-trifluoromethyl-phenyl)-4-[(3,4-dimethoxy-phenylamino)-methyl]-benzamide] here?
A: 37 µM

Q: How did the IC50 (HCT116 cells; HCT-116, Table 5d) turn out when `COc1cccc(NCc2ccc(/C=C/C(=O)Nc3ccccc3N)cc2)c1` [Cpd 507, N-(2-Amino-phenyl)-3-{4-[(3-methoxy-phenylamino)-methyl]-phenyl}-acrylamide] was run?
A: 10 µM

Q: With `Nc1ccccc1NC(=O)/C=C/c1ccc2c(c1)-c1ccccc1C2` [Cpd 519] as the compound, how does the IC50 (HCT116 cells; HCT-116, Table 5d) read?
A: 6 µM

Q: For `COc1ccc(CNc2ccc(/C=C/C(=O)Nc3ccccc3N)cc2)cc1` [Cpd 65, N-(2-aminophenyl)-3-{4-(4-methoxy-benzylamino)-phenyl}-acrylamide], which IC50 (HCT116 cells; HCT-116, 72 h, Table 5c) is on record?
A: 37 µM

Q: With `COc1ccc(CNc2ccc3cc(/C=C/C(=O)Nc4ccccc4N)ccc3n2)cc1` [Cpd 88, N-(2-aminophenyl)-3-[2-(4-methoxy-benzylamino)-quinolin-6-yl]-acrylamide] as the compound, how does the IC50 (HCT116 cells; HCT-116, 72 h, Table 5c) read?
A: > 39 µM

Q: `COc1cc2c(cc1OC)CN(c1ccc(/C=C/C(=O)Nc3ccccc3N)cc1)CC2` [Cpd 498, N-(2-Amino-phenyl)-3-[4-(6,7-dimethoxy-3,4-dihydro-1H-isoquinolin-2-yl)-phenyl]-acrylamide] was tested. Which IC50 [1, 2] did it give?
A: > 25 µM

Q: `Nc1ccccc1NC(=O)/C=C/c1ccc(CNc2ccccc2)cc1` [Cpd 509, N-(2-Amino-phenyl)-3-(4-phenylaminomethyl-phenyl)-acrylamide] was tested. Which IC50 (HCT116 cells; HCT-116, Table 5d) did it give?
A: 11 µM

Q: With `COc1cc(-c2ccc3sc(NCc4ccc(C(=O)Nc5ccccc5N)cc4)nc3c2)cc(OC)c1OC` [Cpd 194] as the compound, how does the IC50 [1, 3] read?
A: 3 µM

Q: For `COc1ccccc1NCc1ccc(/C=C/C(=O)Nc2ccccc2N)cc1` [Cpd 508, N-(2-Amino-phenyl)-3-{4-[(2-methoxy-phenylamino)-methyl]-phenyl}-acrylamide], which IC50 (HCT116 cells; HCT-116, Table 5d) is on record?
A: 11 µM

Q: `Nc1ccccc1NC(=O)c1ccc(-c2ccc(CNC3Cc4ccccc4C3)s2)cc1` [Cpd 465] was tested. Which IC50 [1, 3] did it give?
A: 2 µM

Q: With `Nc1ccccc1NC(=O)/C=C/c1ccc(CSc2ccc3ccccc3n2)cc1` [Cpd 110, N-(2-Amino-phenyl)-3-[4-(quinolin-2-ylsulfanylmethyl)-phenyl]-acrylamide] as the compound, how does the IC50 [1, 4] read?
A: 3 µM

Q: For `Cc1nc(NCCc2ccccc2)nc(NCc2ccc(C(=O)Nc3ccccc3N)cc2)n1` [Cpd 483, N-(2-amino-phenyl)-4-[(6-methyl-4-phenethylamino-[1,3,5]triazin-2-yl-amino)-methyl]-benzamide], which IC50 [1, 5] is on record?
A: 4 µM

Reference: US7868204B2, “Inhibitors of histone deacetylase” (MethylGene Inc., priority 2001, dated 2011)
